Laboratory results taken from patent publication US9593122B2, “Substituted pyrazolylpyrazole derivative and use of same as herbicide” (KYOYU AGRI CO., LTD., priority 2013, dated 2017).

How the values were obtained:
Experiment in all cases: Paddy herbicidal activity test
Format in all cases: in vivo
[1] = test system: Scirpus juncoides; details: irrigated paddy pot, 30 days
Experimental: (§1) Rice paddy soil was filled into a 1/10000 are pot followed by the addition of suitable amounts of water and chemical fertilizer, kneading, seeding with Echinochloa crus-galli, Monochoria vaginalis and Scirpus juncoides and maintaining in an irrigated state at a water depth of 3 cm.
(§2) Wettable powder of Target Compound (I) shown in Table 1 prepared in compliance with the preparation examples were diluted with a suitable amount of water, rice plants in the 2.0 leaf stage were transplanted during 3.5 leaf stage of Echinochloa crus-galli, and treated by dropping in chemical in the prescribed amount per are using a pipette.
(§3) After treating for 30 days in a glass greenhouse at an average atmospheric temperature of 30° C., the herbicidal efficacy thereof was investigated.
(§4) Evaluation of herbicidal efficacy was carried out by comparing growth inhibition rate (%) with an untreated group, while evaluation of phytotoxicity was carried out by comparing growth inhibition rate (%) with the state of a complete eradication group, and were evaluated at 11 levels indicated below.

[2] = test system: Echinochloa crus-galli; details: irrigated paddy pot, treated at 3.5 leaf stage of Echinochloa crus-galli, 30 days
Experimental: as §1, §2, §3, §4

[3] = test system: Monochoria vaginalis; details: irrigated paddy pot, 30 days
Experimental: as §1, §2, §3, §4

Row | SMILES | Scirpus juncoides herbicidal efficacy (growth inhibition level) ([1]; 1g a.i./10a) | Scirpus juncoides herbicidal efficacy (growth inhibition level) ([1]; 5g a.i./10a) | Echinochloa crus-galli herbicidal efficacy (growth inhibition level) ([2]; 1g a.i./10a) | Echinochloa crus-galli herbicidal efficacy (growth inhibition level) ([2]; 5g a.i./10a) | Monochoria vaginalis herbicidal efficacy (growth inhibition level) ([3]; 1g a.i./10a) | Monochoria vaginalis herbicidal efficacy (growth inhibition level) ([3]; 5g a.i./10a)
1 | CC=CCNc1c([N+](=O)[O-])cnn1-c1nn2c(c1Br)CCCC2 (mixture of isomers) [Compound 57] | 7 (7: 70% to less than 80%) | 8 (8: 80% to less than 90%) | 9 (9: 90% to less than 100%) | 10 (10: 100%) | 8 (8: 80% to less than 90%) | 9 (9: 90% to less than 100%)
2 | C=CCCNc1c(C#N)cnn1-c1nn2c(c1Cl)CCCC2 [Compound 5] | 7 (7: 70% to less than 80%) | 8 (8: 80% to less than 90%) | 9 (9: 90% to less than 100%) | 10 (10: 100%) | 9 (9: 90% to less than 100%) | 9 (9: 90% to less than 100%)
3 | N#Cc1cnn(-c2nn3c(c2Cl)CCCC3)c1NCCC(F)=C(F)F [Compound 6] | 8 (8: 80% to less than 90%) | 8 (8: 80% to less than 90%) | 9 (9: 90% to less than 100%) | 9 (9: 90% to less than 100%) | 7 (7: 70% to less than 80%) | 8 (8: 80% to less than 90%)
4 | N#Cc1cnn(-c2nn3c(c2Cl)CCCC3)c1NC/C=C\Cl [Compound 7] | 7 (7: 70% to less than 80%) | 8 (8: 80% to less than 90%) | 9 (9: 90% to less than 100%) | 9 (9: 90% to less than 100%) | 9 (9: 90% to less than 100%) | 9 (9: 90% to less than 100%)
5 | CC(C)=CCNc1c(C#N)cnn1-c1nn2c(c1Cl)CCCC2 [Compound 13] | 8 (8: 80% to less than 90%) | 8 (8: 80% to less than 90%) | 9 (9: 90% to less than 100%) | 10 (10: 100%) | 8 (8: 80% to less than 90%) | 9 (9: 90% to less than 100%)
6 | C=CCN(C(=O)C(F)(F)F)c1c(C#N)cnn1-c1nn2c(c1Cl)CCCC2 [Compound 17] | 9 (9: 90% to less than 100%) | 9 (9: 90% to less than 100%) | 9 (9: 90% to less than 100%) | 10 (10: 100%) | 8 (8: 80% to less than 90%) | 8 (8: 80% to less than 90%)
7 | C=CCCN(C(=O)C(F)(F)F)c1c(C#N)cnn1-c1nn2c(c1Cl)CCCC2 [Compound 18] | 7 (7: 70% to less than 80%) | 8 (8: 80% to less than 90%) | 9 (9: 90% to less than 100%) | 9 (9: 90% to less than 100%) | 8 (8: 80% to less than 90%) | 9 (9: 90% to less than 100%)
8 | C=C(C)CN(C(=O)C(F)(F)F)c1c(C#N)cnn1-c1nn2c(c1Cl)CCCC2 [Compound 19] | 7 (7: 70% to less than 80%) | 8 (8: 80% to less than 90%) | 9 (9: 90% to less than 100%) | 10 (10: 100%) | 9 (9: 90% to less than 100%) | 9 (9: 90% to less than 100%)
9 | N#Cc1cnn(-c2nn3c(c2Cl)CCCC3)c1N(CCC(F)=C(F)F)C(=O)C(F)(F)F [Compound 20] | 8 (8: 80% to less than 90%) | 8 (8: 80% to less than 90%) | 9 (9: 90% to less than 100%) | 9 (9: 90% to less than 100%) | 8 (8: 80% to less than 90%) | 9 (9: 90% to less than 100%)
10 | CC(C)=CCN(C(=O)C(F)(F)F)c1c(C#N)cnn1-c1nn2c(c1Cl)CCCC2 [Compound 25] | 8 (8: 80% to less than 90%) | 8 (8: 80% to less than 90%) | 9 (9: 90% to less than 100%) | 10 (10: 100%) | 9 (9: 90% to less than 100%) | 9 (9: 90% to less than 100%)
11 | C=CCN(C(=O)C(F)(F)C(F)(F)F)c1c(C#N)cnn1-c1nn2c(c1Cl)CCCC2 [Compound 28] | 8 (8: 80% to less than 90%) | 9 (9: 90% to less than 100%) | 9 (9: 90% to less than 100%) | 9 (9: 90% to less than 100%) | 8 (8: 80% to less than 90%) | 10 (10: 100%)
12 | C=C(C)CNc1c([N+](=O)[O-])cnn1-c1nn2c(c1Cl)CCCC2 [Compound 31] | 7 (7: 70% to less than 80%) | 8 (8: 80% to less than 90%) | 9 (9: 90% to less than 100%) | 9 (9: 90% to less than 100%) | 9 (9: 90% to less than 100%) | 9 (9: 90% to less than 100%)
13 | CC(C)=CCNc1c([N+](=O)[O-])cnn1-c1nn2c(c1Cl)CCCC2 [Compound 35] | 8 (8: 80% to less than 90%) | 10 (10: 100%) | 9 (9: 90% to less than 100%) | 9 (9: 90% to less than 100%) | 9 (9: 90% to less than 100%) | 10 (10: 100%)
14 | C=CCN(C(=O)C(F)(F)F)c1c([N+](=O)[O-])cnn1-c1nn2c(c1Cl)CCCC2 [Compound 36] | 8 (8: 80% to less than 90%) | 9 (9: 90% to less than 100%) | 9 (9: 90% to less than 100%) | 10 (10: 100%) | 8 (8: 80% to less than 90%) | 9 (9: 90% to less than 100%)
